Measured values as given in patent US12391733B2, “Stapled intracellular-targeting antimicrobial peptides to treat infection” (priority 2016, dated 2025).
Positions of bridges follow the written chain, without caps; N, C: chain ends. Non-standard residues stand in square brackets, D forms with d. Residues, ends and D or L forms follow the SMILES beside them. R8 = C=CCCCCCC[C@@](C)(N)C(=O)O; S5 = C=CCCC[C@](C)(N)C(=O)O

Columns and labels:
E. coli = format: cell-based, Escherichia coli; conditions: for Antimicrobial Activity NIC (μg/ml) E. coli: Table 1, microbroth dilution, refined MHB, 20-24 hours at 37° C.
Experimental: Antimicrobial Activity Assay The following microbroth dilution protocol was adapted to determine the MIC of each peptide. First, Mueller-Hinton broth (MHB) was passed through an anion exchange column to remove polyanionic species and generate refined MHB. This refined broth was then used in the standard microbroth dilution protocol devised by Hancock et al. for 96 well plates. […] Briefly, bacterial cells were grown overnight in refined MHB at 37° C. and then diluted and allowed to grow again for several hours. Serial dilutions of peptide stocks in water (10 μl) were prepared using clear round-bottom polypropylene 96-well plates. Then 90 μl of bacteria in refined MHB was added to give a final inoculum of 5×10^5 CFU/ml. The plates were then covered with porous tape to reduce evaporation, and incubated for 20-24 hours at 37° C.

[1] = test system: human red blood cells (RBCs); format: cell-based; conditions: for % Hemolysis at 50 μg/ml: red cells of human, 1 h
Source text: One of the key obstacles that have long impeded the use of AMPs in systemic infections such as sepsis is their tendency to lyse human cells, such as red blood cells (RBCs). Thus, it is critical to minimize hemolytic activity as much as possible to achieve a therapeutic window. […] Of note, in those circumstances where hydrocarbon staples increase hemolytic activity due to increasing hydrophobicity, the alkene moiety can be modified, e.g., by dihydroxylation, to install hydrophilic residues and potentially mitigate hemolysis.
Hemolytic Activity Assay For the determination of hemolytic activity, the following protocol was applied: human blood samples were centrifuged to isolate red blood cells (RBCs), which were then washed and suspended in phosphate-buffered saline to yield a 1% (v/v) suspension. This suspension was then added to serial dilutions of peptide stocks in water in clear round-bottom polypropylene 96-well plates and the plates incubated for 1 hour at 37° C. After incubation, the plates were centrifuged and the supernatant isolated to determine the amount of hemoglobin released using a spectrophotometer (570 nm). The minimum hemolytic concentration (MHC) was determined by assessing the peptide concentration at which there was less than 1% hemoglobin release.

circular dichroism = conditions: 10 mM phosphate buffer; pH 7.4; ns °C; 100 uM

Structure (SMILES) | Antimicrobial Activity NIC (μg/ml) E. coli (E. coli) | antimicrobial activity (in words) (E. coli; compared to unstapled buforin II (F10W) and buforin II) | hemolytic activity (in words) [1] | % Hemolysis at 50 μg/ml [1] | helicity (circular dichroism)
CC(C)C[C@H](NC(=O)CNC(=O)[C@H](C)NC(=O)[C@H](CCCNC(=N)N)NC(=O)[C@H](CO)NC(=O)[C@H](CO)NC(=O)[C@H](CCCNC(=N)N)NC(=O)[C@@H](N)[C@@H](C)O)C(=O)N[C@@]1(C)CCCC=CCCC[C@@](C)(C(=O)N[C@@H](CCCNC(=N)N)C(=O)N[C@H](C(=O)N[C@@H](Cc2c[nH]cn2)C(=O)N[C@@H](CCCNC(=N)N)C(=O)N[C@@H](CC(C)C)C(=O)N[C@@H](CC(C)C)C(=O)N[C@@H](CCCNC(=N)N)C(=O)N[C@@H](CCCCN)C(N)=O)C(C)C)NC(=O)[C@H](C(C)C)NC(=O)[C@@H]2CCCN2C(=O)[C@H](Cc2c[nH]c3ccccc23)NC1=O [BFStap(i + 4)7] (H-TRSSRAGL[S5]WPV[S5]RVHRLLRK-NH2; staple 9-13; N-terminus and C-terminus assumed) | 6.3 µg/mL | greatest increase in antimicrobial activity | low hemolytic activity | 3.4% | 6.9%
CC(C)C[C@H](NC(=O)[C@H](CC(C)C)NC(=O)[C@H](CCCNC(=N)N)NC(=O)[C@H](Cc1c[nH]cn1)NC(=O)[C@@H](NC(=O)[C@H](CCCNC(=N)N)NC(=O)CNC(=O)[C@]1(C)CCCC=CCCC[C@](C)(NC(=O)CNC(=O)[C@H](C)NC(=O)[C@H](CCCNC(=N)N)NC(=O)[C@H](CO)NC(=O)[C@H](CO)NC(=O)[C@H](CCCNC(=N)N)NC(=O)[C@@H](N)[C@@H](C)O)C(=O)N[C@@H](CCC(N)=O)C(=O)N[C@@H](Cc2c[nH]c3ccccc23)C(=O)N2CCC[C@H]2C(=O)N1)C(C)C)C(=O)N[C@@H](CCCNC(=N)N)C(=O)N[C@@H](CCCCN)C(N)=O [BFStap(i + 4)8] (H-TRSSRAG[S5]QWP[S5]GRVHRLLRK-NH2; staple 8-12; N-terminus and C-terminus assumed) | 29.2 µg/mL | – | – | 2.8% | 2.3%
CC(C)C[C@@H]1NC(=O)CNC(=O)[C@H](C)NC(=O)[C@@](C)(NC(=O)[C@H](CO)NC(=O)[C@H](CO)NC(=O)[C@H](CCCNC(=N)N)NC(=O)[C@@H](N)[C@@H](C)O)CCCC=CCCC[C@@](C)(C(=O)N[C@@H](Cc2c[nH]c3ccccc23)C(=O)N2CCC[C@H]2C(=O)N[C@H](C(=O)NCC(=O)N[C@@H](CCCNC(=N)N)C(=O)N[C@H](C(=O)N[C@@H](Cc2c[nH]cn2)C(=O)N[C@@H](CCCNC(=N)N)C(=O)N[C@@H](CC(C)C)C(=O)N[C@@H](CC(C)C)C(=O)N[C@@H](CCCNC(=N)N)C(=O)N[C@@H](CCCCN)C(N)=O)C(C)C)C(C)C)NC1=O [BFStap(i + 4)9] (H-TRSS[S5]AGL[S5]WPVGRVHRLLRK-NH2; staple 5-9; N-terminus and C-terminus assumed) | 50.0 µg/mL | – | – | 2.5% | 11.7%
CC(C)C[C@H](NC(=O)[C@H](CC(C)C)NC(=O)[C@H](CCCNC(=N)N)NC(=O)[C@H](Cc1c[nH]cn1)NC(=O)[C@@H](NC(=O)[C@H](CCCNC(=N)N)NC(=O)CNC(=O)[C@@H](NC(=O)[C@@H]1CCCN1C(=O)[C@H](Cc1c[nH]c2ccccc12)NC(=O)[C@H](CCC(N)=O)NC(=O)[C@]1(C)CCCC=CCCC[C@](C)(NC(=O)[C@H](CO)NC(=O)[C@H](CCCNC(=N)N)NC(=O)[C@@H](N)[C@@H](C)O)C(=O)N[C@@H](CCCNC(=N)N)C(=O)N[C@@H](C)C(=O)NCC(=O)N1)C(C)C)C(C)C)C(=O)N[C@@H](CCCNC(=N)N)C(=O)N[C@@H](CCCCN)C(N)=O [BFStap(i + 4)10] (H-TRS[S5]RAG[S5]QWPVGRVHRLLRK-NH2; staple 4-8; N-terminus and C-terminus assumed) | 100 µg/mL | – | – | 2.4% | 20.9%
CC(C)C[C@H](NC(=O)CNC(=O)[C@]1(C)CCCC=CCCC[C@](C)(NC(=O)[C@@H](N)[C@@H](C)O)C(=O)N[C@@H](CO)C(=O)N[C@@H](CO)C(=O)N[C@@H](CCCNC(=N)N)C(=O)N1)C(=O)N[C@@H](CCC(N)=O)C(=O)N[C@@H](Cc1c[nH]c2ccccc12)C(=O)N1CCC[C@H]1C(=O)N[C@H](C(=O)NCC(=O)N[C@@H](CCCNC(=N)N)C(=O)N[C@H](C(=O)N[C@@H](Cc1c[nH]cn1)C(=O)N[C@@H](CCCNC(=N)N)C(=O)N[C@@H](CC(C)C)C(=O)N[C@@H](CC(C)C)C(=O)N[C@@H](CCCNC(=N)N)C(=O)N[C@@H](CCCCN)C(N)=O)C(C)C)C(C)C [BFStap(i + 4)12] (H-T[S5]SSR[S5]GLQWPVGRVHRLLRK-NH2; staple 2-6; N-terminus and C-terminus assumed) | >100 µg/mL | – | – | 2.4% | 5.3%
CC(C)C[C@H](NC(=O)CNC(=O)[C@H](C)NC(=O)[C@]1(C)CCCC=CCCC[C@](C)(N)C(=O)N[C@@H](CCCNC(=N)N)C(=O)N[C@@H](CO)C(=O)N[C@@H](CO)C(=O)N1)C(=O)N[C@@H](CCC(N)=O)C(=O)N[C@@H](Cc1c[nH]c2ccccc12)C(=O)N1CCC[C@H]1C(=O)N[C@H](C(=O)NCC(=O)N[C@@H](CCCNC(=N)N)C(=O)N[C@H](C(=O)N[C@@H](Cc1c[nH]cn1)C(=O)N[C@@H](CCCNC(=N)N)C(=O)N[C@@H](CC(C)C)C(=O)N[C@@H](CC(C)C)C(=O)N[C@@H](CCCNC(=N)N)C(=O)N[C@@H](CCCCN)C(N)=O)C(C)C)C(C)C [BFStap(i + 4)13] (H-[S5]RSS[S5]AGLQWPVGRVHRLLRK-NH2; staple 1-5; N-terminus and C-terminus assumed) | >100 µg/mL | – | – | 2.4% | 0%
CC(C)C[C@H](NC(=O)CNC(=O)[C@H](C)NC(=O)[C@H](CCCNC(=N)N)NC(=O)[C@H](CO)NC(=O)[C@H](CO)NC(=O)[C@H](CCCNC(=N)N)NC(=O)[C@@H](N)[C@@H](C)O)C(=O)N[C@@H](CCC(N)=O)C(=O)N[C@@H](Cc1c[nH]c2ccccc12)C(=O)N1CCC[C@H]1C(=O)N[C@H](C(=O)NCC(=O)N[C@]1(C)CCCCCCC=CCCC[C@@](C)(C(N)=O)NC(=O)[C@H](CCCNC(=N)N)NC(=O)[C@H](CC(C)C)NC(=O)[C@H](CC(C)C)NC(=O)[C@H](CCCNC(=N)N)NC(=O)[C@H](Cc2c[nH]cn2)NC(=O)[C@H](C(C)C)NC1=O)C(C)C [BFStap(i + 7)1] (H-TRSSRAGLQWPVG[R8]VHRLLR[S5]-NH2; staple 14-21; N-terminus and C-terminus assumed) | 10.4 µg/mL | – | – | 16.6% | 16.9%
CC(C)C[C@H](NC(=O)CNC(=O)[C@H](C)NC(=O)[C@H](CCCNC(=N)N)NC(=O)[C@H](CO)NC(=O)[C@H](CO)NC(=O)[C@H](CCCNC(=N)N)NC(=O)[C@@H](N)[C@@H](C)O)C(=O)N[C@@H](CCC(N)=O)C(=O)N[C@@H](Cc1c[nH]c2ccccc12)C(=O)N1CCC[C@H]1C(=O)N[C@H](C(=O)N[C@]1(C)CCCCCCC=CCCC[C@@](C)(C(=O)N[C@@H](CCCCN)C(N)=O)NC(=O)[C@H](CC(C)C)NC(=O)[C@H](CC(C)C)NC(=O)[C@H](CCCNC(=N)N)NC(=O)[C@H](Cc2c[nH]cn2)NC(=O)[C@H](C(C)C)NC(=O)[C@H](CCCNC(=N)N)NC1=O)C(C)C [BFStap(i + 7)2] (H-TRSSRAGLQWPV[R8]RVHRLL[S5]K-NH2; staple 13-20; N-terminus and C-terminus assumed) | 33.3 µg/mL | – | – | 3.1% | 15.6%
CC(C)C[C@H](NC(=O)CNC(=O)[C@H](C)NC(=O)[C@H](CCCNC(=N)N)NC(=O)[C@H](CO)NC(=O)[C@H](CO)NC(=O)[C@H](CCCNC(=N)N)NC(=O)[C@@H](N)[C@@H](C)O)C(=O)N[C@]1(C)CCCCCCC=CCCC[C@@](C)(C(=O)N[C@@H](CCCNC(=N)N)C(=O)N[C@@H](CC(C)C)C(=O)N[C@@H](CC(C)C)C(=O)N[C@@H](CCCNC(=N)N)C(=O)N[C@@H](CCCCN)C(N)=O)NC(=O)[C@H](C(C)C)NC(=O)[C@H](CCCNC(=N)N)NC(=O)CNC(=O)[C@H](C(C)C)NC(=O)[C@@H]2CCCN2C(=O)[C@H](Cc2c[nH]c3ccccc23)NC1=O [BFStap(i + 7)4] (H-TRSSRAGL[R8]WPVGRV[S5]RLLRK-NH2; staple 9-16; N-terminus and C-terminus assumed) | 3.1 µg/mL | – | – | 57.0% | 2.4%
